Experimental data as given in ChEMBL document CHEMBL1828523, “Synthesis and stereospecificity of 4,5-disubstituted oxazolidinone ligands binding to T-box riboswitch RNA” (J Med Chem, 2011).

The compounds below were run against Nucleic Acid (assay: Binding affinity to Bacillus subtilis antiterminator AM1A RNA model after 130 mins by FRET assay).
Type: nucleic-acid assay

SMILES	Kd
O=C(Cc1ccccc1)OC[C@H]1OC(=O)N[C@@H]1CN1CCN(c2ccccc2)CC1	12 µM
CC(=O)c1ccc(NC(=O)OC[C@@H]2OC(=O)N[C@H]2CN2CCN(c3ccccc3)CC2)cc1	1.6 µM
O=C(Cc1ccccc1)OC[C@@H]1OC(=O)N[C@H]1CN1CCN(c2ccccc2)CC1	16 µM
CC(=O)c1ccc(NC(=O)OC[C@H]2OC(=O)N[C@@H]2CN2CCN(c3ccccc3)CC2)cc1	3 µM
O=C(Cc1ccccc1)OC[C@H]1OC(=O)N[C@H]1CN1CCN(c2ccccc2)CC1 (racemic)	> 100 µM
CC(=O)c1ccc(NC(=O)OC[C@H]2OC(=O)N[C@H]2CN2CCN(c3ccccc3)CC2)cc1 (racemic)	1.8 µM

What follows are compounds tested against Nucleic Acid (assay: Binding affinity to Bacillus subtilis antiterminator AM1A RNA model after 70 mins by FRET assay).
Type: nucleic-acid assay

SMILES	Kd
O=C(Cc1ccccc1)OC[C@H]1OC(=O)N[C@H]1CN1CCN(c2ccccc2)CC1 (racemic)	5.1 µM
